Entries after “also recorded” stand apart in the source; their conditions may differ.
Experiments:
[1] = test system: 3D-cultured human blastoids (WIBR3 OCT4-GFP background); test: Post implantation WNT modulation of 3D-cultured blastoids; assay type: cell-based; conditions: for OCT4-GFP reporter area (ratio of OCT4-GFP area: total blastoid area; EPI compartment) / OCT4-GFP signal intensity / invasive trophoblast projections / overall blastoid size (area): 2 μM in N2B27+E2, D8 to D14, 3D ECM, analysed at D14, vs control; for CTB shell: 2 μM, 6 days of treatment, D14 of 3D culture
Source text: Blastoids can be transferred on either day 7 or day 8 of growth. Due to the inaccessibility of commercially available extracellular matrix products during the experimentation phases of this project, multiple matrices were utilized in this study-hESC qualified growth factor-reduced Matrigel (Corning), hESC qualified growth factor reduced Geltrex (Gibco), and Cultrex UltriMatrix reduced growth factor basement membrane extract (R&D, BME001). […] Matrices were thawed on ice and kept cold until crosslinking was desired. Matrices mixed together (Matrigel/geltrex) were mixed following thawing and plated into ibidi microwells (120 μL/well) (ibidi, 80826) or alternatively 96 well plates (40 μL/well). Matrices were solidified at 37° C. for 30 minutes. Wash matrices 2 times with DMEM/F12 before adding blastoids. Add N2B27+10 nM estradiol without antibiotics to each well. Plate desired numbers of blastoids to each well (3-5 in an ibidi microwell, 1-2 in a 96 well plate). Place the plate in the incubator (37° C., 5% CO2, 5% 02) for 24 hours. Replace media daily with N2B27+10 nM estradiol without antibiotics. If blastoids are added at 7 days, the following day they may be loosely attached. Wait approximately 28-30 hours following seeding to ensure blastoids are well anchored before changing medium. Polar TE side attaches and the ICM expands compared to the day before when properly attached. On the following day (day 9) the TE collapses. Migratory EVT emerge at day 13. Maintaining proper pH is important for blastoids post implantation, the medium should be at pH=7.2-7.4 by pre-equilibration in the incubator or use freshly made N2B27 that has not oxidized too excessively (media should be pink/orange in color, never purple). WIBR3 OCT4-GFP blastoids were grown to 7 days in blastoid generating conditions (see above) and blastoids with localized single ICM, continuous trophectoderm, and with a round blastocoel cavity were chosen by hand and plated upon a pre-formed 3D matrix (Cultrex UltriMatrix) formed with a 96 well plate (40 μL of Cultrex per well). 2 blastoids per well were plated among 10 wells for each condition in N2B27+1 mM Na Pyruvate+10 nM Estradiol (E2). Blastoids were allowed to attach for approximately 24-30 hours in the incubator (5% CO2, 5% O2, 37° C., 100% humidity). When blastoids attached, TE collapsed, and ICM expanded, medium was changed to N2B27+1 mM Na Pyruvate+10 nM E2+2 μM XAV939 or +2 μM CHIR99021. Media was changed daily and grown in a 37° C., 5% CO2, 5% O2 incubator. Blastoids were fixed in 4% paraformaldehyde as described above on day 14 of total blastoid growth.

[2] = test system: WIBR3 OCT4-GFP naïve hPSCs; test: Blastoid formation (cavitation) from 5i/L/A naïve hPSCs in Aggrewells; assay type: cell-based, human; conditions: for rate of cavitation on omission of the component from the blastoid media: component omitted/removed (Conditions 2-4), D7
Experimental: Naïve hPSCs were dissociated with Accutase for 5 minutes at 37° C. Single cell dissociate naïve stem cells and inactivate accutase enzymes with fibroblast medium. Centrifuge this suspension 1000 rpm for 5 minutes. Remove supernatant and wash once with DMEM/F12, centrifuge 1000 rpm for 5 minutes. Aspirate supernatant and resuspend in 2 mL of 5i/L/A medium. Remove iMEFs from the cell suspension by incubation on gelatin-coated plates for 30-45 minutes at 37° C. 5% CO2. Collect cells and count cells to plate 100,000 cells per 24 well Aggrewell (StemCell Technologies) well. Coat the aggrewells with Anti-adherence solution (StemCell Technologies) for 10 minutes at room temperature. Wash wells once with DMEM/F12, then add 1 mL of 5i/L/A medium. Add naïve stem cells to Aggrewells, 100,000 cells per 500 μL, total medium should be 1.5 mL per well. Centrifuge the plate 1000 rpm for 2 minutes for equal distribution of cell number per microwell. Incubate at 37° C. 5% CO2 and 5% 02 for one day. […]
Cavitation rate was determined by counting individual aggregates at 7 days of blastoid growth in at least 3 24-well wells per condition. Tile scan images of the entire well were stitched together and aggregates vs. cavitated aggregates were manually counted in ImageJ. […] Significance determined by a 1-way ANOVA with multiple comparisons. *p<0.05, **p<0.01.
Blastoid size was determined with ImageJ software by drawing a circle around the entire blastoid, and diameters determined by a single line drawn across the widest apparent part of the blastoid (day 7 n=1901; day 8 n=18). Inner cell mass size was determined by utilizing the OCT4-GFP channel and manually drawing around the brightest region of GFP+ areas (control n=152 blastoids; —CHIR n=130). Significance determined with Welch's t-test, ****p<0.0001.

Compound | OCT4-GFP reporter area (ratio of OCT4-GFP area: total blastoid area; EPI compartment) [1] | OCT4-GFP signal intensity [1] | invasive trophoblast projections [1] | overall blastoid size (area) [1] | CTB shell [1] | rate of cavitation on omission of the component from the blastoid media [2] | TE expansion (ICM:TE ratio based on OCT4-GFP reporter activity) on omission of the component ([2]; component omitted (Condition 2))
Oc1nc(-c2ccc(C(F)(F)F)cc2)nc2c1CSCC2 [XAV939] | notable expansion | increase in signal intensity | significantly fewer invasive trophoblast projections | reduced | reduction of the CTB shell | – | –
LIF: recombinant human leukemia inhibitory factor (PeproTech) | – | – | – | – | – | without adversely affecting the rate of cavitation | –
Cc1c[nH]c(-c2cnc(NCCNc3ccc(C#N)cn3)nc2-c2ccc(Cl)cc2Cl)n1 [CHIR99021] | reduced ratio of OCT4-GFP+ cells | diminished intensity of OCT4-GFP reporter activity | significantly fewer invasive trophoblast projections | larger; also recorded: increased | expansion of the CTB shell | enhanced the rate of cavitation | specifically promotes TE expansion
